Source: ChEMBL document CHEMBL2150993, “Substituted thiazoles VII. Synthesis and antitumor activity of certain 2-(substituted amino)-4-phenyl-1,3-thiazole analogs” (2012)

Tests used:
Assay type in all cases: functional
Settings in all cases: at 10 µM
[1] = system: CCRF-CEM; assay: Growth inhibition of human CCRF-CEM cells after 48 hrs by cell counting analysis
[2] = system: HL-60; assay: Growth inhibition of human HL60 cells after 48 hrs by cell counting analysis
[3] = system: K562; assay: Growth inhibition of human K562 cells after 48 hrs by cell counting analysis
[4] = system: RPMI-8226; assay: Growth inhibition of human RPMI8226 cells after 48 hrs by cell counting analysis
[5] = system: SR; assay: Growth inhibition of human SR cells after 48 hrs by cell counting analysis
[6] = system: A549; assay: Growth inhibition of human A549 cells after 48 hrs by cell counting analysis
[7] = system: EKVX; assay: Growth inhibition of human EKVX cells after 48 hrs by cell counting analysis
[8] = system: HOP-62; assay: Growth inhibition of human HOP62 cells after 48 hrs by cell counting analysis
[9] = system: HOP-92; assay: Growth inhibition of human HOP92 cells after 48 hrs by cell counting analysis
[10] = system: NCI-H226; assay: Growth inhibition of human NCI-H226 cells after 48 hrs by cell counting analysis
[11] = system: NCI-H23; assay: Growth inhibition of human NCI-H23 cells after 48 hrs by cell counting analysis
[12] = Growth inhibition of human NCI-322M cells after 48 hrs by cell counting analysis
[13] = system: NCI-H522; assay: Growth inhibition of human NCI-H522 cells after 48 hrs by cell counting analysis
[14] = system: HCC 2998; assay: Growth inhibition of human HCC2998 cells after 48 hrs by cell counting analysis
[15] = system: HCT-15; assay: Growth inhibition of human HCT15 cells after 48 hrs by cell counting analysis
[16] = system: HT-29; assay: Growth inhibition of human HT-29 cells after 48 hrs by cell counting analysis
[17] = system: KM12; assay: Growth inhibition of human KM12 cells after 48 hrs by cell counting analysis
[18] = system: SW-620; assay: Growth inhibition of human SW620 cells after 48 hrs by cell counting analysis
[19] = system: SF-268; assay: Growth inhibition of human SF268 cells after 48 hrs by cell counting analysis
[20] = system: SF-295; assay: Growth inhibition of human SF295 cells after 48 hrs by cell counting analysis
[21] = system: SF-539; assay: Growth inhibition of human SF539 cells after 48 hrs by cell counting analysis
[22] = system: SNB-19; assay: Growth inhibition of human SNB19 cells after 48 hrs by cell counting analysis
[23] = system: SNB-75; assay: Growth inhibition of human SNB75 cells after 48 hrs by cell counting analysis
[24] = system: U-251; assay: Growth inhibition of human U251 cells after 48 hrs by cell counting analysis
[25] = system: LOX IMVI; assay: Growth inhibition of human LOXIMVI cells after 48 hrs by cell counting analysis
[26] = system: Malme-3M; assay: Growth inhibition of human MALME-3M cells after 48 hrs by cell counting analysis
[27] = system: M14; assay: Growth inhibition of human M14 cells after 48 hrs by cell counting analysis
[28] = system: MDA-MB-435; assay: Growth inhibition of human MDA-MB-435 cells after 48 hrs by cell counting analysis
[29] = system: SK-MEL-2; assay: Growth inhibition of human SK-MEL-2 cells after 48 hrs by cell counting analysis
[30] = system: SK-MEL-28; assay: Growth inhibition of human SK-MEL-28 cells after 48 hrs by cell counting analysis
[31] = system: SK-MEL-5; assay: Growth inhibition of human SK-MEL-5 cells after 48 hrs by cell counting analysis
[32] = system: UACC-257; assay: Growth inhibition of human UACC257 cells after 48 hrs by cell counting analysis
[33] = system: UACC-62; assay: Growth inhibition of human UACC62 cells after 48 hrs by cell counting analysis
[34] = system: IGROV-1; assay: Growth inhibition of human IGROV1 cells after 48 hrs by cell counting analysis
[35] = system: OVCAR-3; assay: Growth inhibition of human OVCAR3 cells after 48 hrs by cell counting analysis
[36] = system: OVCAR-4; assay: Growth inhibition of human OVCAR4 cells after 48 hrs by cell counting analysis
[37] = system: OVCAR-5; assay: Growth inhibition of human OVCAR5 cells after 48 hrs by cell counting analysis
[38] = system: OVCAR-8; assay: Growth inhibition of human OVCAR8 cells after 48 hrs by cell counting analysis
[39] = Growth inhibition of human NCI-ADR-RES cells after 48 hrs by cell counting analysis
[40] = system: SK-OV-3; assay: Growth inhibition of human SKOV3 cells after 48 hrs by cell counting analysis
[41] = system: ACHN; assay: Growth inhibition of human ACHN cells after 48 hrs by cell counting analysis
[42] = system: CAKI-1; assay: Growth inhibition of human Caki1 cells after 48 hrs by cell counting analysis
[43] = system: RXF 393; assay: Growth inhibition of human RXF393 cells after 48 hrs by cell counting analysis
[44] = system: SN12C; assay: Growth inhibition of human SN12C cells after 48 hrs by cell counting analysis
[45] = system: TK-10; assay: Growth inhibition of human TK10 cells after 48 hrs by cell counting analysis
[46] = system: UO-31; assay: Growth inhibition of human UO31 cells after 48 hrs by cell counting analysis
[47] = system: PC-3; assay: Growth inhibition of human PC3 cells after 48 hrs by cell counting analysis
[48] = system: MCF7; assay: Growth inhibition of human MCF7 cells after 48 hrs by cell counting analysis
[49] = system: MDA-MB-231; assay: Growth inhibition of human MDA-MB-231 cells after 48 hrs by cell counting analysis
[50] = system: BT-549; assay: Growth inhibition of human BT549 cells after 48 hrs by cell counting analysis
[51] = system: T47D; assay: Growth inhibition of human T47D cells after 48 hrs by cell counting analysis
[52] = system: MDA-MB-468; assay: Growth inhibition of human MDA-MB-468 cells after 48 hrs by cell counting analysis
[53] = system: MOLT-4; assay: Growth inhibition of human MOLT4 cells after 48 hrs by cell counting analysis
[54] = system: HCT-116; assay: Growth inhibition of human HCT116 cells after 48 hrs by cell counting analysis

Cc1ccc(-c2csc(NC(=O)CCN3CCN(c4ccccc4)CC3)n2)cc1
growth inhibition (GI) [1]: <10%
growth inhibition (GI) [2]: <10%
growth inhibition (GI) [3]: <10%
growth inhibition (GI) [4]: <10%
growth inhibition (GI) [5]: <10%
growth inhibition (GI) [6]: 23.8%
growth inhibition (GI) [7]: 16.6%
growth inhibition (GI) [8]: <10%
growth inhibition (GI) [9]: 10.2%
growth inhibition (GI) [10]: <10%
growth inhibition (GI) [11]: 14.5%
growth inhibition (GI) [12]: 15.6%
growth inhibition (GI) [13]: <10%
growth inhibition (GI) [14]: <10%
growth inhibition (GI) [15]: <10%
growth inhibition (GI) [16]: <10%
growth inhibition (GI) [17]: <10%
growth inhibition (GI) [18]: <10%
growth inhibition (GI) [19]: <10%
growth inhibition (GI) [20]: <10%
growth inhibition (GI) [21]: <10%
growth inhibition (GI) [22]: <10%
growth inhibition (GI) [23]: <10%
growth inhibition (GI) [24]: <10%
growth inhibition (GI) [25]: <10%
growth inhibition (GI) [26]: 12.1%
growth inhibition (GI) [27]: <10%
growth inhibition (GI) [28]: <10%
growth inhibition (GI) [29]: <10%
growth inhibition (GI) [30]: <10%
growth inhibition (GI) [31]: <10%
growth inhibition (GI) [32]: <10%
growth inhibition (GI) [33]: 16.3%
growth inhibition (GI) [34]: 14.9%
growth inhibition (GI) [35]: <10%
growth inhibition (GI) [36]: 11.1%
growth inhibition (GI) [37]: <10%
growth inhibition (GI) [38]: <10%
growth inhibition (GI) [39]: <10%
growth inhibition (GI) [40]: <10%
growth inhibition (GI) [41]: <10%
growth inhibition (GI) [42]: 14.1%
growth inhibition (GI) [43]: <10%
growth inhibition (GI) [44]: <10%
growth inhibition (GI) [45]: <10%
growth inhibition (GI) [46]: 41.2%
growth inhibition (GI) [47]: 16.1%
growth inhibition (GI) [48]: <10%
growth inhibition (GI) [49]: <10%
growth inhibition (GI) [50]: <10%
growth inhibition (GI) [51]: <10%
growth inhibition (GI) [52]: <10%
growth inhibition (GI) [53]: 14.9%
growth inhibition (GI) [54]: <10%

O=C(CN1CCN(c2ccccc2)CC1)Nc1nc(-c2ccc(Br)cc2)cs1
growth inhibition (GI) [1]: 22.2%
growth inhibition (GI) [2]: 27.1%
growth inhibition (GI) [3]: 70.7%
growth inhibition (GI) [4]: 33.6%
growth inhibition (GI) [5]: <10%
growth inhibition (GI) [6]: 30.8%
growth inhibition (GI) [7]: 26.7%
growth inhibition (GI) [8]: <10%
growth inhibition (GI) [9]: <10%
growth inhibition (GI) [10]: 20.2%
growth inhibition (GI) [11]: 22.5%
growth inhibition (GI) [12]: 20.5%
growth inhibition (GI) [13]: 34.5%
growth inhibition (GI) [14]: 21%
growth inhibition (GI) [15]: 26.1%
growth inhibition (GI) [16]: 37.7%
growth inhibition (GI) [17]: <10%
growth inhibition (GI) [18]: <10%
growth inhibition (GI) [19]: 17%
growth inhibition (GI) [20]: 20.9%
growth inhibition (GI) [21]: <10%
growth inhibition (GI) [22]: 23.9%
growth inhibition (GI) [23]: 17.9%
growth inhibition (GI) [24]: <10%
growth inhibition (GI) [25]: 11.6%
growth inhibition (GI) [26]: 13.8%
growth inhibition (GI) [27]: 15.7%
growth inhibition (GI) [28]: 23.9%
growth inhibition (GI) [29]: 14.5%
growth inhibition (GI) [30]: <10%
growth inhibition (GI) [31]: 39.4%
growth inhibition (GI) [32]: 13.7%
growth inhibition (GI) [33]: 40.1%
growth inhibition (GI) [34]: 34.3%
growth inhibition (GI) [35]: <10%
growth inhibition (GI) [36]: <10%
growth inhibition (GI) [37]: <10%
growth inhibition (GI) [38]: 11.9%
growth inhibition (GI) [39]: 30.9%
growth inhibition (GI) [40]: <10%
growth inhibition (GI) [41]: 15.7%
growth inhibition (GI) [42]: 33.5%
growth inhibition (GI) [43]: 13.6%
growth inhibition (GI) [44]: 23.7%
growth inhibition (GI) [45]: 28.3%
growth inhibition (GI) [46]: 54.6%
growth inhibition (GI) [47]: 28.5%
growth inhibition (GI) [48]: 41.2%
growth inhibition (GI) [49]: 22.2%
growth inhibition (GI) [50]: 13.6%
growth inhibition (GI) [51]: 41.8%
growth inhibition (GI) [52]: 55.6%
growth inhibition (GI) [53]: 47.6%
growth inhibition (GI) [54]: 33.1%

CN1CCN(CCC(=O)Nc2nc(-c3ccc(Cl)cc3)cs2)CC1
growth inhibition (GI) [1]: 18.3%
growth inhibition (GI) [2]: 20.6%
growth inhibition (GI) [3]: 22.4%
growth inhibition (GI) [4]: 17.6%
growth inhibition (GI) [5]: <10%
growth inhibition (GI) [6]: <10%
growth inhibition (GI) [7]: 11.9%
growth inhibition (GI) [8]: 19.7%
growth inhibition (GI) [9]: 42.2%
growth inhibition (GI) [10]: 28%
growth inhibition (GI) [11]: 11.2%
growth inhibition (GI) [12]: <10%
growth inhibition (GI) [13]: 31.1%
growth inhibition (GI) [14]: 13.3%
growth inhibition (GI) [15]: 18.1%
growth inhibition (GI) [16]: 23.8%
growth inhibition (GI) [17]: <10%
growth inhibition (GI) [18]: <10%
growth inhibition (GI) [19]: 14.2%
growth inhibition (GI) [20]: <10%
growth inhibition (GI) [21]: 14.8%
growth inhibition (GI) [22]: 19.7%
growth inhibition (GI) [23]: 26.8%
growth inhibition (GI) [24]: 16.5%
growth inhibition (GI) [25]: 12.8%
growth inhibition (GI) [26]: 15.4%
growth inhibition (GI) [27]: 15.2%
growth inhibition (GI) [28]: 15.4%
growth inhibition (GI) [29]: <10%
growth inhibition (GI) [30]: <10%
growth inhibition (GI) [31]: 46.1%
growth inhibition (GI) [32]: <10%
growth inhibition (GI) [33]: 15%
growth inhibition (GI) [34]: 18.4%
growth inhibition (GI) [35]: <10%
growth inhibition (GI) [36]: <10%
growth inhibition (GI) [37]: <10%
growth inhibition (GI) [38]: 15.6%
growth inhibition (GI) [39]: 21.9%
growth inhibition (GI) [40]: <10%
growth inhibition (GI) [41]: <10%
growth inhibition (GI) [42]: 24.2%
growth inhibition (GI) [43]: 47.4%
growth inhibition (GI) [44]: 32.9%
growth inhibition (GI) [45]: 20.2%
growth inhibition (GI) [46]: 48.6%
growth inhibition (GI) [47]: 15.3%
growth inhibition (GI) [48]: 28%
growth inhibition (GI) [49]: 25.6%
growth inhibition (GI) [50]: 29.1%
growth inhibition (GI) [51]: 28.8%
growth inhibition (GI) [52]: 62.8%
growth inhibition (GI) [53]: 51.8%
growth inhibition (GI) [54]: 13.3%
